Series [1] relates to Bacillus subtilis MTCC 14416. Type of series: cell-based. As to conditions: lowest concentration killing entire bacteria, 24 hrs.
Excerpt: (§1) Antimicrobial activity: Broth dilution method [39] was used to assess the antimicrobial activity of the peptides. Bacterial strains used for in vitro antibacterial assay were Staphylococcus aureus (MTCC 9542), Bacillus subtilis (MTCC 14416), Bacillus coagulans (ATCC 7050), Methicillin-resistant Staphylococcus aureus (MRSA) (ATCC 43300), Streptococcus mutans (MTCC 497), Streptococcus gordonii (MTCC 2695), Vibrio cholerae (MCV09), Escherichia coli (ATCC 25922), Vancomycin-resistant enterococcus (VRE) (ATCC 29212) and gram-negative fish pathogens Aeromonas hydrophila (ATCC 7966) and Aeromonas sobria (ATCC 43979). Bacterial cultures were grown in Muller Hinton broth (MHB) (Hi-media) by overnight incubation at 37° C. with constant shaking. Microbial cultures having 10^6 CFU/ml were made from OD600: 0.6 cultures. 400 μM stock solutions of peptides were prepared in autoclaved double distilled water and diluted in MHB to make concentrations ranging from 0.7 to 100 μM. Bacterial inoculum without peptide was used as the negative control.
For series [2], the system named is Staphylococcus aureus MTCC 9542. Type of series: cell-based. As to conditions: lowest peptide concentration required to kill entire bacteria, 24 hrs, NA = not active up to the highest concentration tested.
Excerpt: as §1
Series [3] relates to Bacillus coagulans ATCC 7050. Type of series: cell-based. Particulars: lowest concentration killing entire bacteria, 24 hrs.
Excerpt: as §1
Series [4] has as its system MRSA ATCC 43300. It counts as cell-based, Methicillin-resistant Staphylococcus aureus. Particulars: lowest concentration killing entire bacteria, 24 hrs.
Excerpt: as §1
The test system of series [5] is gram-negative bacteria. The experiment in a line: MIC range over the tested gram-negative bacteria. It counts as cell-based.
Excerpt: as §1
Series [6] relates to VRE ATCC 29212. Particulars: lowest concentration killing entire bacteria, 24 hrs.
Excerpt: as §1
Series [7] deals with human erythrocytes. Type of series: cell-based. Particulars: 60 min, at the peptide's MIC for Staphylococcus aureus MTCC 9542 (MIC in parenthesis). Here is the method:
Hemolytic Activity: Hemolytic assay was carried out as previously described. Briefly, 10% (v/v) suspensions of fresh human erythrocytes in phosphate buffered saline (pH 7.2) were incubated with different concentrations (100 μM-0.7 μM) of B1/1 COOH & B1/2 COOH, B1/1 CONH2 & B1/2 CONH2 and cyclic B1/1 CONH2 & cyclic B1/2 CONH2 and incubated at 3^7° C. for 60 min. The cells were centrifuged (3000×g) for 5 min, and absorbance of the supernatant was measured at 595 nm. Hemolysis caused by 10% Triton X-100 was taken as positive control. Percentage hemolysis was calculated by measuring the mean amount of hemoglobin released as a result of lysis of erythrocyte from three independent experiments.

Each structure is given as a SMILES string. Converted amounts (≈) assume the structure as drawn. Residues, ends and D or L forms follow the SMILES beside them.

The term MIC denotes the lowest concentration that inhibits growth of the organism. A low value points to greater potency.

On to `CC[C@H](C)[C@H](NC(=O)CNC(=O)[C@@H]1CCCN1C(=O)[C@H](Cc1ccccc1)NC(=O)[C@@H](N)Cc1ccccc1)C(=O)N[C@H](C(=O)N[C@@H](CCCCN)C(=O)N[C@H](C(=O)N[C@@H](C)C(=O)N[C@@H](CO)C(=O)N[C@@H](C)C(=O)N[C@H](C(=O)N[C@@H](CC(C)C)C(=O)N1CCC[C@H]1C(=O)N[C@H](C(=O)N[C@@H](C)C(=O)N[C@H](C(=O)N[C@@H](CS)C(=O)N[C@@H](C)C(=O)N[C@H](C(=O)N[C@H](C(=O)N[C@@H](CCCCN)C(=O)N[C@@H](CCCNC(=N)N)C(=O)N[C@@H](CS)C(=O)O)[C@@H](C)O)[C@@H](C)CC)[C@@H](C)CC)[C@@H](C)O)[C@@H](C)CC)C(C)C)[C@@H](C)CC` [B1/1 COOH] (H-FFPGIIKVASAILPTAICAITKRC-OH; N-terminus assumed), for which the MIC in series [1] amounted to 98 µM (≈ 248 µg/mL); in series [2], 9.5 µM (≈ 24.1 µg/mL); in series [3] it was 25 µM (≈ 63.4 µg/mL); in series [4] it was 25 µM (≈ 63.4 µg/mL); in series [6], 50 µM (≈ 127 µg/mL). For the same molecule, in series [5], the “Activity against gram-negative bacteria (MIC range)” value is on record as “not with gram-negative bacteria”. Moreover, the “Percentage hemolysis at MIC” value in series [7] came out at 20%.
In the case of `CC[C@H](C)[C@H](NC(=O)CNC(=O)[C@@H]1CCCN1C(=O)[C@H](Cc1ccccc1)NC(=O)[C@@H](N)Cc1ccccc1)C(=O)N[C@H](C(=O)N[C@@H](CCCCN)C(=O)N[C@H](C(=O)N[C@@H](C)C(=O)NCC(=O)N[C@@H](C)C(=O)N[C@H](C(=O)N[C@@H](CC(C)C)C(=O)N1CCC[C@H]1C(=O)N[C@H](C(=O)N[C@@H](C)C(=O)N[C@H](C(=O)N[C@@H](CS)C(=O)N[C@@H](C)C(=O)N[C@H](C(=O)N[C@H](C(=O)N[C@@H](CCCCN)C(=O)N[C@@H](CCCNC(=N)N)C(=O)N[C@@H](CS)C(=O)O)[C@@H](C)O)[C@@H](C)CC)[C@@H](C)CC)[C@@H](C)O)[C@@H](C)CC)C(C)C)[C@@H](C)CC` [B1/2 COOH] (H-FFPGIIKVAGAILPTAICAITKRC-OH; N-terminus assumed), the MIC in series [1] was determined as 67.5 µM (≈ 169 µg/mL); in series [2], 12.5 µM (≈ 31.3 µg/mL); in series [3], 25 µM (≈ 62.6 µg/mL); in series [4], 30 µM (≈ 75.1 µg/mL); in series [6], 50 µM (≈ 125 µg/mL). Further, the “Activity against gram-negative bacteria (MIC range)” value in series [5] is on record as “not with gram-negative bacteria”. Further, the “Percentage hemolysis at MIC” value in series [7] is 25%.

These data come from patent publication US20190298796A1, “Therapeutic Compositions from the Brevinin-1 Family of Peptides and Uses Thereof” (priority 2016, published 2019).
